Several values for one entry are separate records, joined by “and”; a condition that tells them apart may be missing. Identical values can stand only once.
Test system: NCI-H322M multicellular tumor spheroids, viability (% test/control)
Assay: Anticancer human tumor NCI-H322M cell line growth inhibition;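 as to viability, T/C: spheroids exposed to compound for seven days before readout; 100% = DMSO vehicle control wells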
Conditions: for viability, T/C: stronger effect = lower value
How it was run: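 Single agents and combinations were tested on spheroids built from tumor cells plus HUVEC and hMSC, at half-log dilutions starting at or near clinical Cmax, else 10 microM; final DMSO 0.25% (v/v).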

[1] = curve of first compound, second compound 0.003 µM
[2] = curve of first compound, second compound 0.00949 µM
[3] = curve of first compound, second compound 0.03 µM
[4] = curve of first compound, second compound 0.0949 µM
[5] = curve of first compound, second compound 0.3 µM
[6] = second compound 0.003 µM, first compound 0.0316 µM
[7] = second compound 0.003 µM, first compound 0.1 µM
[8] = second compound 0.003 µM, first compound 0.316 µM
[9] = second compound 0.003 µM, first compound 1 µM
[10] = second compound 0.003 µM, first compound 3.16 µM
[11] = second compound 0.003 µM, first compound 10 µM
[12] = second compound 0.00949 µM, first compound 0.0316 µM
[13] = second compound 0.00949 µM, first compound 0.1 µM
[14] = second compound 0.00949 µM, first compound 0.316 µM
[15] = second compound 0.00949 µM, first compound 1 µM
[16] = second compound 0.00949 µM, first compound 3.16 µM
[17] = second compound 0.00949 µM, first compound 10 µM
[18] = second compound 0.03 µM, first compound 0.0316 µM
[19] = second compound 0.03 µM, first compound 0.1 µM
[20] = second compound 0.03 µM, first compound 0.316 µM
[21] = second compound 0.03 µM, first compound 1 µM
[22] = second compound 0.03 µM, first compound 3.16 µM
[23] = second compound 0.03 µM, first compound 10 µM
[24] = second compound 0.0949 µM, first compound 0.0316 µM
[25] = second compound 0.0949 µM, first compound 0.1 µM
[26] = second compound 0.0949 µM, first compound 0.316 µM
[27] = second compound 0.0949 µM, first compound 1 µM
[28] = second compound 0.0949 µM, first compound 3.16 µM
[29] = second compound 0.0949 µM, first compound 10 µM
[30] = second compound 0.3 µM, first compound 0.0316 µM
[31] = second compound 0.3 µM, first compound 0.1 µM
[32] = second compound 0.3 µM, first compound 0.316 µM
[33] = second compound 0.3 µM, first compound 1 µM
[34] = second compound 0.3 µM, first compound 3.16 µM
[35] = second compound 0.3 µM, first compound 10 µM

Cc1cc(C)c(CNC(=O)c2cc(-c3ccc(CN4CCOCC4)cc3)cc3c2cnn3C2CCCC2)c(=O)[nH]1 + CC[C@@]1(O)C(=O)OCc2c1cc1n(c2=O)Cc2cc3c(CN(C)C)c(O)ccc3nc2-1
IC50 [1]: > 10 µM | IC50 [2]: > 10 µM | IC50 [3]: > 10 µM | IC50 [4]: > 10 µM | IC50 [5]: > 10 µM | viability, T/C [6]: 89% | viability, T/C [7]: 82.3% | viability, T/C [8]: 83.7% | viability, T/C [9]: 86.5% | viability, T/C [10]: 81.2% | viability, T/C [11]: 112% | viability, T/C [12]: 76.4% | viability, T/C [13]: 80.6% | viability, T/C [14]: 86.2% | viability, T/C [15]: 81.6% | viability, T/C [16]: 79.9% | viability, T/C [17]: 105% | viability, T/C [18]: 77.3% | viability, T/C [19]: 84.9% | viability, T/C [20]: 77.3% | viability, T/C [21]: 76.7% | viability, T/C [22]: 84.8% | viability, T/C [23]: 101% | viability, T/C [24]: 64.5% | viability, T/C [25]: 61.5% | viability, T/C [26]: 56.1% | viability, T/C [27]: 71.7% | viability, T/C [28]: 71.5% | viability, T/C [29]: 82.2% | viability, T/C [30]: 54.7% | viability, T/C [31]: 49.3% | viability, T/C [32]: 52.5% | viability, T/C [33]: 51.5% | viability, T/C [34]: 48.2% | viability, T/C [35]: 59.5%

CC1COCCN1c1cc(-c2ccnn2C)c2ccnc(-c3ccn[nH]3)c2n1 (centres undefined) + Cn1nnc2c(C(N)=O)ncn2c1=O
IC50 (curve of first compound, second compound 1 µM): 0.128 µM | IC50 (curve of first compound, second compound 3.16 µM): 0.156 µM | IC50 (curve of first compound, second compound 10 µM): 0.08 µM | IC50 (curve of first compound, second compound 31.6 µM): < 0.0316 µM | IC50 (curve of first compound, second compound 100 µM): < 0.0316 µM | viability, T/C (second compound 1 µM, first compound 0.0316 µM): 66.3% | viability, T/C (second compound 1 µM, first compound 0.1 µM): 54.4% | viability, T/C (second compound 1 µM, first compound 0.316 µM): 43.5% | viability, T/C (second compound 1 µM, first compound 1 µM): 37.4% | viability, T/C (second compound 1 µM, first compound 3.16 µM): 41.5% | viability, T/C (second compound 1 µM, first compound 10 µM): 48.5% | viability, T/C (second compound 3.16 µM, first compound 0.0316 µM): 63% | viability, T/C (second compound 3.16 µM, first compound 0.1 µM): 55.1% | viability, T/C (second compound 3.16 µM, first compound 0.316 µM): 42.3% | viability, T/C (second compound 3.16 µM, first compound 1 µM): 34.1% | viability, T/C (second compound 3.16 µM, first compound 3.16 µM): 37.7% | viability, T/C (second compound 3.16 µM, first compound 10 µM): 40.8% | viability, T/C (second compound 10 µM, first compound 0.0316 µM): 72.2% | viability, T/C (second compound 10 µM, first compound 0.1 µM): 44.5% | viability, T/C (second compound 10 µM, first compound 0.316 µM): 45.4% | viability, T/C (second compound 10 µM, first compound 1 µM): 37.3% | viability, T/C (second compound 10 µM, first compound 3.16 µM): 40.6% | viability, T/C (second compound 10 µM, first compound 10 µM): 50% | viability, T/C (second compound 31.6 µM, first compound 0.0316 µM): 56.1% | viability, T/C (second compound 31.6 µM, first compound 0.1 µM): 43% | viability, T/C (second compound 31.6 µM, first compound 0.316 µM): 37.1% | viability, T/C (second compound 31.6 µM, first compound 1 µM): 36.6% | viability, T/C (second compound 31.6 µM, first compound 3.16 µM): 35.9% | viability, T/C (second compound 31.6 µM, first compound 10 µM): 41.4% | viability, T/C (second compound 100 µM, first compound 0.0316 µM): 41.1% | viability, T/C (second compound 100 µM, first compound 0.1 µM): 34.8% | viability, T/C (second compound 100 µM, first compound 0.316 µM): 31.7% | viability, T/C (second compound 100 µM, first compound 1 µM): 32% | viability, T/C (second compound 100 µM, first compound 3.16 µM): 35.4% | viability, T/C (second compound 100 µM, first compound 10 µM): 40.6%

CC(C)n1c(=O)n(C)c2cnc3cc(F)c(-c4ccc(OCCCN5CCCCC5)nc4)cc3c21 + CC[C@@]1(O)C(=O)OCc2c1cc1n(c2=O)Cc2cc3c(CN(C)C)c(O)ccc3nc2-1
IC50 [1]: > 10 µM | IC50 [2]: > 10 µM | IC50 [3]: > 10 µM | IC50 [4]: > 10 µM | IC50 [5]: > 10 µM | viability, T/C [6]: 73.3% | viability, T/C [7]: 81.4% | viability, T/C [8]: 80% | viability, T/C [9]: 75.9% | viability, T/C [10]: 77.4% | viability, T/C [11]: 73.2% | viability, T/C [12]: 73.2% | viability, T/C [13]: 72.8% | viability, T/C [14]: 77.3% | viability, T/C [15]: 75.3% | viability, T/C [16]: 85.1% | viability, T/C [17]: 71.4% | viability, T/C [18]: 67.2% | viability, T/C [19]: 73.8% | viability, T/C [20]: 65.3% | viability, T/C [21]: 72.5% | viability, T/C [22]: 73% | viability, T/C [23]: 70.2% | viability, T/C [24]: 58.8% | viability, T/C [25]: 56.5% | viability, T/C [26]: 69.3% | viability, T/C [27]: 65.2% | viability, T/C [28]: 67.2% | viability, T/C [29]: 68.6% | viability, T/C [30]: 53.3% | viability, T/C [31]: 50.3% | viability, T/C [32]: 54.7% | viability, T/C [33]: 62.6% | viability, T/C [34]: 61.6% | viability, T/C [35]: 55%

CNCc1ccc(-c2cc(-c3nc(-c4ccc(S(=O)(=O)C(C)C)cc4)cnc3N)on2)cc1
viability, T/C (compound 0.00949 µM): 101% and 98.9% and 108% | viability, T/C (compound 0.03 µM): 92% and 104% and 77.6% | viability, T/C (compound 0.0949 µM): 86.2% and 90.6% and 82.5% | viability, T/C (compound 0.3 µM): 75.3% and 82.6% and 88.2% | viability, T/C (compound 0.949 µM): 93% and 95.4% and 77.4% | viability, T/C (compound 3 µM): 90.5% and 94.3% and 74.9% | IC50 (curve of compound): > 3 µM

CNCc1ccc(-c2cc(-c3nc(-c4ccc(S(=O)(=O)C(C)C)cc4)cnc3N)on2)cc1 + CC[C@@]1(O)C(=O)OCc2c1cc1n(c2=O)Cc2cc3c(CN(C)C)c(O)ccc3nc2-1
IC50 [1]: > 3 µM | IC50 [2]: > 3 µM | IC50 [3]: > 3 µM | IC50 [4]: > 3 µM | IC50 [5]: 1.47 µM | viability, T/C (second compound 0.003 µM, first compound 0.00949 µM): 79.2% | viability, T/C (second compound 0.003 µM, first compound 0.03 µM): 93.3% | viability, T/C (second compound 0.003 µM, first compound 0.0949 µM): 96% | viability, T/C (second compound 0.003 µM, first compound 0.3 µM): 79.7% | viability, T/C (second compound 0.003 µM, first compound 0.949 µM): 78% | viability, T/C (second compound 0.003 µM, first compound 3 µM): 85.6% | viability, T/C (second compound 0.00949 µM, first compound 0.00949 µM): 95.3% | viability, T/C (second compound 0.00949 µM, first compound 0.03 µM): 87.9% | viability, T/C (second compound 0.00949 µM, first compound 0.0949 µM): 83.7% | viability, T/C (second compound 0.00949 µM, first compound 0.3 µM): 75.4% | viability, T/C (second compound 0.00949 µM, first compound 0.949 µM): 81.3% | viability, T/C (second compound 0.00949 µM, first compound 3 µM): 85.7% | viability, T/C (second compound 0.03 µM, first compound 0.00949 µM): 88.4% | viability, T/C (second compound 0.03 µM, first compound 0.03 µM): 74.7% | viability, T/C (second compound 0.03 µM, first compound 0.0949 µM): 85.5% | viability, T/C (second compound 0.03 µM, first compound 0.3 µM): 69.1% | viability, T/C (second compound 0.03 µM, first compound 0.949 µM): 86% | viability, T/C (second compound 0.03 µM, first compound 3 µM): 86.6% | viability, T/C (second compound 0.0949 µM, first compound 0.00949 µM): 69.3% | viability, T/C (second compound 0.0949 µM, first compound 0.03 µM): 66% | viability, T/C (second compound 0.0949 µM, first compound 0.0949 µM): 61.3% | viability, T/C (second compound 0.0949 µM, first compound 0.3 µM): 74.2% | viability, T/C (second compound 0.0949 µM, first compound 0.949 µM): 59.7% | viability, T/C (second compound 0.0949 µM, first compound 3 µM): 69.1% | viability, T/C (second compound 0.3 µM, first compound 0.00949 µM): 55.2% | viability, T/C (second compound 0.3 µM, first compound 0.03 µM): 56.4% | viability, T/C (second compound 0.3 µM, first compound 0.0949 µM): 59.1% | viability, T/C (second compound 0.3 µM, first compound 0.3 µM): 54.7% | viability, T/C (second compound 0.3 µM, first compound 0.949 µM): 51.7% | viability, T/C (second compound 0.3 µM, first compound 3 µM): 46.2%

COc1ccc([C@@H](O)c2cc(-c3ncnc4cc(N5CCOCC5)ccc34)c(F)cc2Cl)nn1
viability, T/C (compound 0.0316 µM): 94.5% and 86.9% and 89% | viability, T/C (compound 0.1 µM): 82% and 74.6% and 84.6% | viability, T/C (compound 0.316 µM): 79.5% and 68% and 94.4% | viability, T/C (compound 1 µM): 61.6% and 63.9% and 62.2% | viability, T/C (compound 3.16 µM): 38.2% and 58.7% and 52.9% | viability, T/C (compound 10 µM): 33.5% and 34.7% and 43.3% | IC50 (curve of compound): 1.82 µM and 3.81 µM and 2.7 µM

Reference: PubChem BioAssay AID1845211 (Molecular Pharmacology Branch, DTP, NCI, 2023)
